Source: patent US7906486B2, “Method of treating or preventing tissue deterioration, injury or damage due to disease of mucosa” (SciClone Pharmaceuticals, Inc., priority 2007, dated 2011)

Key:
[1] = Weights and survival (Example 2, SCI-02); assay type: in vivo, Syrian Golden Hamsters
Description: All animals were weighed daily and their survival recorded, in order to assess possible differences in animal weight among treatment groups as an indication for mucositis severity and/or possible toxicity resulting from the treatments.
The mean daily percent weight change data was evaluated. The saline treated control hamsters gained an average of 44.1% of their starting weight during the study. Hamsters in the group receiving SCV-07 100 μg/kg once daily on days −1 to 20 gained an average of 49.9% of their starting weight during the study. Hamsters in the group receiving SCV-07 at 100 μg/kg twice daily on days −1 to 20 gained an average of 61.3% of their starting weight during the study. Hamsters in the group receiving SCV-07 at 1 mg/kg once daily on days −1 to 20 gained an average of 63.4% of their starting weight during the study. Hamsters in the group receiving SCV-07 at 1 mg/kg twice daily on days −1 to 20 gained an average of 69.1% of their starting weight during the study. The significance of these differences was evaluated by calculating the area-under-the-curve (AUC) for the weight gain of each animal, and then comparing the different treatment groups using a One-Way ANOVA test.

[2] = test system: oral mucositis induced by fractionated radiation (eight doses of 7.5 Gy, left buccal cheek pouch); assay: Oral mucositis induced by fractionated radiation in hamsters, mucositis scoring (Example 3, SCI-03); assay type: in vivo, Syrian Golden Hamsters; settings: for % Days >=3 / Days <3 / Days >=3 / Chi Sq v control: 100 ug/kg, qd; for Days >=3: animal days with mucositis score of three or more; for Chi Sq v control: days with score >=3
Description: The fractionated radiation model in hamsters, developed by the Principal Investigator, has proven to be an accurate, efficient and cost-effective technique to provide a preliminary evaluation of anti-mucositis compounds. In this model, hamsters receive 8 doses of 7.5 Gy to the left cheek pouch on days 0, 1, 2, 3, […], rather than the single dose of 40 Gy on day 0 that is used in acute radiation studies. The rationale for using this scheduling for the radiation is that it more closely resembles the clinical courses of radiotherapy given to cancer patients. The course of mucositis in this model is well defined and results in peak mucositis scores approximately 14-16 days following radiation. Mortality (generally from the side effects of anesthesia) in the fractionated radiation model is slightly higher than that seen in the acute radiation model and group sizes are increased (to 10 per group) to allow for this.
(§1) Forty (40) male Syrian Golden Hamsters were given eight doses of radiation of 7.5 Gy each directed to their left buccal cheek pouch on days 0, 1, 2, 3, 6, 7, 8 and 9. This was accomplished by anesthetizing the animals and everting the left buccal pouch, while protecting the rest of the animal's bodies with a lead shield. Test materials were given by sub-cutaneous injection once daily as detailed in Table 9. Mucositis was evaluated clinically starting on day 7, and continuing on alternate days until day 35. Test articles were given as outlined Table 9, Groups 1 and 2 were dosed from Day −1 to Day 29, Group 3 was dosed on the days of radiation only, Group 4 was dosed on the days between Day −15 and Day 29 on which no radiation is given (Day −1, Day 4, Day 5 and Day 10 to Day 29).
The effect on mucositis of each drug treatment compared to placebo was assessed according to the following parameters:
On each evaluation day, the number of animals with a blinded mucositis score of ≧3 in each drug treatment group was compared to the control group. Differences were compared on a cumulative basis and statistical significance was determined by chi-square analysis. Efficacy, in this analysis, is defined by a significant reduction in the number of days that a group of animals had ulcerations (scores ≧3) when compared to the control group.
For each evaluation day the scores of the control group were compared to those of the treated groups using non-parametric rank sum analysis. Treatment success was considered as a statistically significant lowering of scores in the treated group on 2 or more days from day 6 to day 28.
as §1, with “daily at 8:00 am” for “daily”, “9. […]” for “9. Mucositis was evaluated clinically starting on day 7, and continuing on alternate days until day 35.”, “2 was” for “2 were”, “radiation only (days 0-3 and days 6-10),” for “radiation only,”, “Day −1” for “Day −15”, “Day 4 to” for “Day 4,”
Radiation was generated with a Philips 160 kVp (kilovolt potential) (18.75-ma) X-ray source at a focal distance of 30 cm, with a 3.0 mm hardened Al filtration system. Irradiation was targeted to the left buccal pouch mucosa at a rate of 3.32 Gy/minute. […] Using this calibration, the energy received by each animal at each radiation dose was approximately 64.5 nC (nanoCoulombs) at each time point. Prior to irradiation, animals were anesthetized with an intraperitoneal injection of ketamine (160 mg/kg) and xylazine (8 mg/kg). The left buccal pouch was everted, fixed and isolated using a lead shield.
The mucositis score, weight change and survival were measured throughout the study as described above. […]

[3] = 100 ug/kg from day -1 to day 29
[4] = 100 ug/kg on the days of radiation (0-3 and 6-9)

N[C@H](CCC(=O)N[C@@H](Cc1c[nH]c2ccccc12)C(=O)O)C(=O)O [SCV-07, γ-D-glutamyl-L-tryptophan]
average weight gain, % of starting weight during the study ([1]; 100 ug/kg once daily on days -1 to 20): 49.9% | P, weight gain greater than saline controls ([1]; 100 ug/kg twice daily): 0.014 | average weight gain, % of starting weight during the study ([1]; 100 ug/kg twice daily on days -1 to 20): 61.3% | P, weight gain greater than saline controls ([1]; 1 mg/kg once daily): 0.009 | average weight gain, % of starting weight during the study ([1]; 1 mg/kg once daily on days -1 to 20): 63.4% | P, weight gain greater than saline controls ([1]; 1 mg/kg twice daily): 0.004 | average weight gain, % of starting weight during the study ([1]; 1 mg/kg twice daily on days -1 to 20): 69.1% | P, One-Way ANOVA of weight gain AUC, SCV-07 treated groups vs control group ([1]; all SCV-07 groups, significant differences): 0.012 | day of peak mean mucositis score [2, 3]: 19 | peak mean mucositis score [2, 3]: 3.3 | peak mean mucositis score ([2]; 100 ug/kg on days 1, 4, 5 and 10 through 29): 2.9 | day of peak mean mucositis score [2, 4]: 17 | peak mean mucositis score [2, 4]: 3.0 | % Days >=3 ([2]; sc Days 0 to 3 and 6 to 9): 24% | Days <3 ([2]; sc Days 0 to 3 and 6 to 9): 228 | % Days >=3 ([2]; sc Days -1, 4, 5 10 to 29): 30.7% | Days <3 ([2]; sc Days -1, 4, 5 10 to 29): 208 | % Days >=3 ([2]; sc Days -1 to 29): 32.7% | Days <3 ([2]; sc Days -1 to 29): 202 | Days >=3 ([2]; sc Days 0 to 3 and 6 to 9): 72 | Days >=3 ([2]; sc Days -1, 4, 5 10 to 29): 92 | Days >=3 ([2]; sc Days -1 to 29): 98 | Chi Sq v control ([2]; sc Days 0 to 3 and 6 to 9): 0.3160 | Chi Sq v control ([2]; sc Days -1, 4, 5 10 to 29): 0.2300 | Chi Sq v control ([2]; sc Days -1 to 29): 0.575
